Results taken from paper PMC12028158, “Synthesis and In Vitro Evaluation of the Anticancer Effect of Novel Phosphonium Vindoline Derivatives” (International Journal of Molecular Sciences, 2025).
Read-outs that look alike come from different tables or passages of the source.

Key:
Assay type in all cases: cell-based
[1] = test system: NCI/ADR-RES; assay: NCI60 five-dose screen; conditions: Homo sapiens
[2] = test system: IGROV1; assay: NCI60 one-dose screen; conditions: Homo sapiens
[3] = test system: UACC-62; assay: NCI60 five-dose screen; conditions: Homo sapiens
[4] = test system: MDA-MB-435; assay: NCI60 five-dose screen; conditions: Homo sapiens
[5] = test system: SN12C; assay: NCI60 five-dose screen; conditions: Homo sapiens
[6] = test system: BT-549; assay: NCI60 five-dose screen; conditions: Homo sapiens
[7] = test system: NCI-H226; assay: NCI60 five-dose screen; conditions: Homo sapiens
[8] = test system: CAKI-1; assay: NCI60 five-dose screen; conditions: Homo sapiens
[9] = test system: HCT-15; assay: NCI60 one-dose screen; conditions: Homo sapiens
[10] = test system: Breast Cancer panel; assay: NCI60 five-dose screen, panel mean; conditions: Homo sapiens, read-out: GI50 Mean
[11] = test system: MALME-3M; assay: NCI60 one-dose screen; conditions: Homo sapiens, read-out: Growth percent
[12] = test system: SK-MEL-5; assay: NCI60 five-dose screen; conditions: Homo sapiens
[13] = test system: SK-MEL-28; assay: NCI60 five-dose screen; conditions: Homo sapiens
[14] = test system: 786-0; assay: NCI60 five-dose screen; conditions: Homo sapiens
[15] = test system: EKVX; assay: NCI60 five-dose screen; conditions: Homo sapiens
[16] = test system: HCT-116; assay: NCI60 five-dose screen; conditions: Homo sapiens
[17] = test system: SF-539; assay: NCI60 one-dose screen; conditions: Homo sapiens
[18] = test system: BT-549; assay: NCI60 one-dose screen; conditions: Homo sapiens
[19] = test system: NCI/ADR-RES; assay: NCI60 one-dose screen; conditions: Homo sapiens, read-out: Growth percent
[20] = test system: OVCAR-4; assay: NCI60 five-dose screen; conditions: Homo sapiens
[21] = test system: M14; assay: NCI60 five-dose screen; conditions: Homo sapiens
[22] = test system: K-562; assay: NCI60 five-dose screen; conditions: Homo sapiens, K562
[23] = test system: KM12; assay: NCI60 one-dose screen; conditions: Homo sapiens
[24] = test system: SF-268; assay: NCI60 five-dose screen; conditions: Homo sapiens
[25] = test system: HCT-15; assay: NCI60 five-dose screen; conditions: Homo sapiens
[26] = test system: UACC-62; assay: NCI60 one-dose screen; conditions: Homo sapiens
[27] = test system: HS 578T; assay: NCI60 five-dose screen; conditions: Homo sapiens
[28] = test system: NCI-H460; assay: NCI60 one-dose screen; conditions: Homo sapiens
[29] = test system: OVCAR-8; assay: NCI60 one-dose screen; conditions: Homo sapiens
[30] = test system: MOLT-4; assay: NCI60 one-dose screen; conditions: Homo sapiens
[31] = test system: HL-60(TB); assay: NCI60 five-dose screen; conditions: Homo sapiens
[32] = test system: RXF 393; assay: NCI60 five-dose screen; conditions: Homo sapiens
[33] = test system: 786-0; assay: NCI60 one-dose screen; conditions: Homo sapiens
[34] = test system: HOP-92; assay: NCI60 one-dose screen; conditions: Homo sapiens
[35] = test system: SK-MEL-5; assay: NCI60 one-dose screen; conditions: Homo sapiens
[36] = test system: IGROV1; assay: NCI60 five-dose screen; conditions: Homo sapiens, IGROV-1
[37] = test system: MDA-MB-231/ATCC; assay: NCI60 one-dose screen; conditions: Homo sapiens
[38] = test system: CNS Cancer panel; assay: NCI60 five-dose screen, panel mean; conditions: Homo sapiens, read-out: GI50 Mean
[39] = test system: SN12C; assay: NCI60 one-dose screen; conditions: Homo sapiens, read-out: Growth percent
[40] = test system: A498; assay: NCI60 one-dose screen; conditions: Homo sapiens
[41] = test system: 60 human tumor cell lines (NCI60); assay: NCI60 one-dose screen, overall mean; conditions: for activity at 10 µM: Homo sapiens, read-out: Mean growth percent
[42] = test system: DU-145; assay: NCI60 five-dose screen; conditions: Homo sapiens
[43] = test system: A498; assay: NCI60 five-dose screen; conditions: Homo sapiens
[44] = test system: SR; assay: NCI60 one-dose screen; conditions: Homo sapiens, read-out: Growth percent
[45] = test system: Leukemia panel; assay: NCI60 five-dose screen, panel mean; conditions: Homo sapiens, read-out: GI50 Mean
[46] = test system: NCI-H322M; assay: NCI60 one-dose screen; conditions: Homo sapiens, read-out: Growth percent
[47] = test system: NCI-H23; assay: NCI60 one-dose screen; conditions: Homo sapiens

CC[C@]12C=CCN3CC[C@@]4(c5ccc(OC)cc5N(C)[C@H]4[C@@](O)(C(=O)OC)[C@@H]1OC(=O)CCCC[P+](c1ccc(C)cc1)(c1ccc(C)cc1)c1ccc(C)cc1)[C@@H]32 [10a]
GI50 [1]: 12 µM | activity at 10 µM ([2]; IGROV-1, read-out: Growth percent): -91.8% | GI50 ([3]; UACC-62): 0.705 µM | GI50 ([4]; MDA-MB-435): 0.678 µM | GI50 [5]: 0.619 µM | GI50 ([6]; BT-549): 0.763 µM | GI50 ([7]; NCI-H226): 1.43 µM | GI50 ([8]; CAKI-1): 7.46 µM | activity at 10 µM ([9]; HCT-15, read-out: Growth percent): -90.1% | GI50 [10]: 0.58 µM | activity at 10 µM ([11]; Malme-3M): -96% | GI50 ([12]; SK-MEL-5): 1.57 µM | GI50 ([13]; SK-MEL-28): 0.485 µM | GI50 ([14]; 786-0): 1.64 µM | GI50 [15]: 1.05 µM | GI50 ([16]; HCT-116): 0.452 µM | activity at 10 µM ([17]; SF-539, read-out: Growth percent): -98.7% | activity at 10 µM ([18]; BT-549, read-out: Growth percent): -97% | activity at 10 µM [19]: 71.8% | GI50 ([20]; OVCAR-4): 1.09 µM | GI50 ([21]; M14): 1.11 µM | GI50 [22]: 0.654 µM | activity at 10 µM ([23]; KM12, read-out: Growth percent): -73.6% | GI50 ([24]; SF-268): 1.17 µM | GI50 ([25]; HCT-15): 2.17 µM | activity at 10 µM ([26]; UACC-62, read-out: Growth percent): -97.4% | GI50 ([27]; Hs-578T): 1.2 µM | activity at 10 µM ([28]; NCI-H460, read-out: Growth percent): -86.6% | activity at 10 µM ([29]; OVCAR-8, read-out: Growth percent): -86.6% | activity at 10 µM ([30]; MOLT-4, read-out: Growth percent): -25% | GI50 ([31]; HL-60): 0.221 µM | GI50 ([32]; RXF 393): 0.468 µM | activity at 10 µM ([33]; 786-0, read-out: Growth percent): -91% | activity at 10 µM ([34]; HOP-92, read-out: Growth percent): -77.9% | activity at 10 µM ([35]; SK-MEL-5, read-out: Growth percent): -98.5% | GI50 [36]: 0.479 µM | activity at 10 µM ([37]; MDA-MB-231, read-out: Growth percent): -97.2% | GI50 [38]: 1.09 µM | activity at 10 µM [39]: -88.5% | activity at 10 µM ([40]; A498, read-out: Growth percent): -90.9% | activity at 10 µM ([41]; 60 cell): -78.7% | average reduction / average cell death ([41]; one-dose, 10 µM, average over cell lines): more than 70% | GI50 ([42]; DU-145): 1.15 µM | GI50 ([43]; A498): 2.17 µM | activity at 10 µM [44]: 25.8% | GI50 [45]: 0.48 µM | activity at 10 µM [46]: -97.6% | activity at 10 µM ([47]; NCI-H23, read-out: Growth percent): -92.4%

CC[C@]12C=CCN3CC[C@@]4(c5ccc(OC)cc5N(C)[C@H]4[C@@](O)(C(=O)OC)[C@@H]1OC(=O)CCCC[P+](c1ccc(F)cc1)(c1ccc(F)cc1)c1ccc(F)cc1)[C@@H]32 [10c]
GI50 ([1]; Ovarian Cancer, read-out: GI50): > 100 µM | activity at 10 µM ([2]; IGROV-1, IGROV1, 10 μM, one-dose, read-out: Growth percent): -42.8% | GI50 ([3]; UACC-62, Melanoma, read-out: GI50): 11.3 µM | GI50 ([4]; MDA-MB-435, Melanoma, read-out: GI50): 12.9 µM | GI50 ([5]; Renal Cancer, read-out: GI50): 28.6 µM | GI50 ([6]; BT-549, Breast Cancer, read-out: GI50): 12.9 µM | GI50 ([7]; NCI-H226, Non-small Cell Lung Cancer, read-out: GI50): 27.3 µM | GI50 ([8]; CAKI-1, Renal Cancer, read-out: GI50): > 100 µM | activity at 10 µM ([9]; HCT-15, 10 μM, one-dose, read-out: Growth percent): 102% | GI50 ([10]; mean over Breast Cancer panel): 11.1 µM | activity at 10 µM ([11]; MALME-3M, 10 μM, one-dose): -55.9% | GI50 ([12]; SK-MEL-5, Melanoma, read-out: GI50): 17.1 µM | GI50 ([13]; SK-MEL-28, Melanoma, read-out: GI50): 8.28 µM | GI50 ([14]; 786-0, Renal Cancer, read-out: GI50): 34.1 µM | GI50 ([15]; Non-small Cell Lung Cancer, read-out: GI50): 21 µM | GI50 ([16]; HCT-116, Colon Cancer, read-out: GI50): 25.9 µM | activity at 10 µM ([17]; SF-539, 10 μM, one-dose, read-out: Growth percent): 16% | activity at 10 µM ([18]; BT-549, 10 μM, one-dose, read-out: Growth percent): -23.5% | activity at 10 µM ([19]; 10 μM, one-dose): 105% | GI50 ([20]; OVCAR-4, Ovarian Cancer, read-out: GI50): 25.1 µM | GI50 ([21]; M14, Melanoma, read-out: GI50): 14.7 µM | GI50 ([22]; K-562, Leukemia, read-out: GI50): 11.3 µM | activity at 10 µM ([23]; KM12, 10 μM, one-dose, read-out: Growth percent): 16% | GI50 ([24]; SF-268, CNS Cancer, read-out: GI50): 17.6 µM | GI50 ([25]; HCT-15, Colon Cancer, read-out: GI50): > 100 µM | activity at 10 µM ([26]; UACC-62, 10 μM, one-dose, read-out: Growth percent): -69.6% | GI50 ([27]; HS 578T, Breast Cancer, read-out: GI50): 16.9 µM | activity at 10 µM ([28]; NCI-H460, 10 μM, one-dose, read-out: Growth percent): 20.3% | activity at 10 µM ([29]; OVCAR-8, 10 μM, one-dose, read-out: Growth percent): 20% | activity at 10 µM ([30]; MOLT-4, 10 μM, one-dose, read-out: Growth percent): 29.1% | GI50 ([31]; HL-60, HL-60(TB), Leukemia, read-out: GI50): 2.11 µM | GI50 ([32]; RXF 393, Renal Cancer, read-out: GI50): 13.3 µM | activity at 10 µM ([33]; 786-0, 10 μM, one-dose, read-out: Growth percent): 87% | activity at 10 µM ([34]; HOP-92, 10 μM, one-dose, read-out: Growth percent): -12.2% | activity at 10 µM ([35]; SK-MEL-5, 10 μM, one-dose, read-out: Growth percent): -59.6% | GI50 ([36]; IGROV1, Ovarian Cancer, read-out: GI50): 10.8 µM | activity at 10 µM ([37]; MDA-MB-231/ATCC, 10 μM, one-dose, read-out: Growth percent): 2.85% | GI50 ([38]; mean over CNS Cancer panel): 18.8 µM | activity at 10 µM ([39]; 10 μM, one-dose): 10.6% | activity at 10 µM ([40]; A498, 10 μM, one-dose, read-out: Growth percent): 99.2% | activity at 10 µM ([41]; mean over 60 cell lines, 10 μM, one-dose): 17% | GI50 ([42]; DU-145, Prostate Cancer, read-out: GI50): 35.4 µM | GI50 ([43]; A498, Renal Cancer, read-out: GI50): > 100 µM | activity at 10 µM ([44]; 10 μM, one-dose): 28.8% | GI50 ([45]; mean over Leukemia panel): 9.86 µM | activity at 10 µM ([46]; 10 μM, one-dose): 52.9% | activity at 10 µM ([47]; NCI-H23, 10 μM, one-dose, read-out: Growth percent): 23.6%
